Measurements reported in patent US20250130221A1, “METHOD OF IDENTIFYING AGENTS FOR THE TREATMENT OF CYSTIC FIBROSIS CAUSED BY THE MUTATION F508DEL” (FACULDADE DE CIÊNCIAS DA UNIVERSIDADE DE LISBOA, priority 2022, published 2025).
One block for each compound: values may come before it.

Assays:
GRK2 [1] = target: T1, GRK2 (Homo sapiens, UniProt P25098); conditions: GRK5 over GRK2; cited from earlier work
T1 sequence (P25098 1-689): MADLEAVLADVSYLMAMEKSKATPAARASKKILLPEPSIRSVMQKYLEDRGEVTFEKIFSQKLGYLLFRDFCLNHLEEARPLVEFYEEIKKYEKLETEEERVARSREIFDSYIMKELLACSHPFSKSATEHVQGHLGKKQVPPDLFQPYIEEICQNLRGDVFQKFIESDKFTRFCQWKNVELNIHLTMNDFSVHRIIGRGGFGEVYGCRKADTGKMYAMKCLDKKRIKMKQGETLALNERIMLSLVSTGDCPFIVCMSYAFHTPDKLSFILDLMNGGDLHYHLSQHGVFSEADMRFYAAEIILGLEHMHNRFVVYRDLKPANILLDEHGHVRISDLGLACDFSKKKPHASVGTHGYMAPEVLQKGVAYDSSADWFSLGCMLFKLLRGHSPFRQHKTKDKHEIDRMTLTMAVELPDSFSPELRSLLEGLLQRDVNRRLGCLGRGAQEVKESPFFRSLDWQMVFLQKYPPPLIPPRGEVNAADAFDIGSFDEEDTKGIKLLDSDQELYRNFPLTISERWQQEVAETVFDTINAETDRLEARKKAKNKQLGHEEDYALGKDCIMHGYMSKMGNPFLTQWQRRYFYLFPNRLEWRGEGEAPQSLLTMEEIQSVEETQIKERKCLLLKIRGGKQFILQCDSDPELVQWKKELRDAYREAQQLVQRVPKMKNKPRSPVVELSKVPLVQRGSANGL

[2] = system: CFBE cells expressing F508del-CFTR; assay: Cellular toxicity in CFBE cells during dose-response WB assay; type: cell-based, human; conditions: concentrations higher than 1 μM
GRK5 = conditions: covalent binding; cited from earlier work
F508del-CFTR [3] = target: T2, F508del-CFTR (Homo sapiens, UniProt P13569, DEL508-508); assay: Halide-sensitive YFP fluorescence quenching in CFBE cells expressing F508del-CFTR; type: cell-based; conditions: for additivity to CFTR correctors, HS-YFP quenching rate (F508del-CFTR functional rescue): 1 μM with VX-661 (5 μM), VX-445 (3 μM) or VX-661+VX-445, n=4
T2 construct: expressed in transfected cells; host or cells: CFBE41o- cells constitutively (stably) expressing F508del-CFTR
Procedure: CFBE41o- cells constitutively co-expressing the HS-yellow fluorescent protein (HS-YFP) YFP-H148Q/I152L as well as wt- or F508del-CFTR (described in (Sondo et al., 2011)) were a kind gift from Dr Nicoletta Pedemonte (IRCCS Istituto G. Gaslini, Genoa, Italy). These cells were cultured in Minimum Essential Medium (MEM) supplemented with 10% FBS, 2 mM L-glutamine, puromycin 2 μg/ml and G418 […] (Sigma, #A1720) at 37° C. in 5% CO2.
This assay was used to assess whether the enhanced F508del-CFTR traffic recorded when the reporter cell line was transfected with confirmed hit siRNAs also corresponded to enhanced F508del-CFTR ionic transport function. As in the microscopy-based screens, a 72 h siRNA transfection time was selected. The assay followed a previously reported protocol (Sondo et al., 2011). CFBE cells co-expressing HS-YFP and wt- or F508del-CFTR were grown to confluency (37° C., 5% CO2) and split to 50% confluency. On the following day, the experiment was initiated by seeding cells onto siRNA-coated 96 well plates using a peristaltic pump (ThermoFisher Multidrop™ Combi). Each well was seeded with 10,000 cells. […] After the stimulation period, each plate was transferred to a fluorescence plate reader equipped with fast reagent injectors (Tecan Infinite F200 Pro) and excitation (BP 475-495 nm) and emission ([…]) filters suitable for YFP fluorescence. Each assay consisted of a continuous 16 s fluorescence reading with 2 s before and 14 s after injection of 160 μl of a PBS where Cl^− had been replaced by I^− (final I^− concentration in the well: 100 mM). The pH of all PBS-containing solutions was rigorously set at pH 7.4 immediately before use to avoid artifacts in the fluorescence reading. The resulting kinetics was background subtracted and normalized to the pre-injection fluorescence value. To determine the fluorescence quenching rate associated with I^− influx, the final 14 s of the kinetics in each well were fitted with a single decay exponential curve and the derivative at the injection time (i.e. the quenching rate) was extracted from the curve parameters. […]

F508del-CFTR [4] = target: T2, F508del-CFTR; assay: Western blot of F508del-CFTR processing (bands B and C) in CFBE cells; type: cell-based; conditions: for F508del-CFTR band C rescue: CFBE cells stably expressing F508del-CFTR, vs DMSO, n=3; for additivity to CFTR correctors, bands C and B: 1 μM with VX-661 (5 μM), VX-445 (3 μM) or VX-661+VX-445, n=4; for CFTR processing [C/(B+C)]: dose-response 0-1 μM, proportional increase in band B
GRK2 [5] = conditions: cited from earlier work
PKA = conditions: statement in words; cited from earlier work
GRK1 = target: T3, GRK1 (Bos taurus, UniProt P28327); conditions: cited from earlier work
T3 sequence (P28327 1-561): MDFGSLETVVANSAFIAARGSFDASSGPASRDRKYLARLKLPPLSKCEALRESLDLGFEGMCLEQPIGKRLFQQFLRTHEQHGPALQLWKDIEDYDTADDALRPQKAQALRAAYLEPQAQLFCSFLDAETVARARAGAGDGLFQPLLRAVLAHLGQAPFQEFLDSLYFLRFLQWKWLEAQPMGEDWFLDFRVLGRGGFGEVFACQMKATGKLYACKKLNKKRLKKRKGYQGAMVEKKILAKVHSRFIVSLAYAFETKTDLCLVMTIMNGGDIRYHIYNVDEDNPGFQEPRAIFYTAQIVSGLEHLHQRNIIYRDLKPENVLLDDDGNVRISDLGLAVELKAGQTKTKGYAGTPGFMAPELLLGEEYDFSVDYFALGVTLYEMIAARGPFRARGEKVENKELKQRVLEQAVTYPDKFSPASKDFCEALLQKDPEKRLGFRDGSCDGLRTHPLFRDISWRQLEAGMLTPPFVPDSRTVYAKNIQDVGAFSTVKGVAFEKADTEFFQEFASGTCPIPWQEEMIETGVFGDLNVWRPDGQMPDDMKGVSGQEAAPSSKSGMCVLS

[6] = listed as (R,Z)-3-((4-(2-Bromoacetamido)-3,5-dimethyl-1H-pyrrol-2-yl)-methylene)-2-oxo-N-

T2 sequence (P13569 with tags, fused parts or gaps DEL508-508): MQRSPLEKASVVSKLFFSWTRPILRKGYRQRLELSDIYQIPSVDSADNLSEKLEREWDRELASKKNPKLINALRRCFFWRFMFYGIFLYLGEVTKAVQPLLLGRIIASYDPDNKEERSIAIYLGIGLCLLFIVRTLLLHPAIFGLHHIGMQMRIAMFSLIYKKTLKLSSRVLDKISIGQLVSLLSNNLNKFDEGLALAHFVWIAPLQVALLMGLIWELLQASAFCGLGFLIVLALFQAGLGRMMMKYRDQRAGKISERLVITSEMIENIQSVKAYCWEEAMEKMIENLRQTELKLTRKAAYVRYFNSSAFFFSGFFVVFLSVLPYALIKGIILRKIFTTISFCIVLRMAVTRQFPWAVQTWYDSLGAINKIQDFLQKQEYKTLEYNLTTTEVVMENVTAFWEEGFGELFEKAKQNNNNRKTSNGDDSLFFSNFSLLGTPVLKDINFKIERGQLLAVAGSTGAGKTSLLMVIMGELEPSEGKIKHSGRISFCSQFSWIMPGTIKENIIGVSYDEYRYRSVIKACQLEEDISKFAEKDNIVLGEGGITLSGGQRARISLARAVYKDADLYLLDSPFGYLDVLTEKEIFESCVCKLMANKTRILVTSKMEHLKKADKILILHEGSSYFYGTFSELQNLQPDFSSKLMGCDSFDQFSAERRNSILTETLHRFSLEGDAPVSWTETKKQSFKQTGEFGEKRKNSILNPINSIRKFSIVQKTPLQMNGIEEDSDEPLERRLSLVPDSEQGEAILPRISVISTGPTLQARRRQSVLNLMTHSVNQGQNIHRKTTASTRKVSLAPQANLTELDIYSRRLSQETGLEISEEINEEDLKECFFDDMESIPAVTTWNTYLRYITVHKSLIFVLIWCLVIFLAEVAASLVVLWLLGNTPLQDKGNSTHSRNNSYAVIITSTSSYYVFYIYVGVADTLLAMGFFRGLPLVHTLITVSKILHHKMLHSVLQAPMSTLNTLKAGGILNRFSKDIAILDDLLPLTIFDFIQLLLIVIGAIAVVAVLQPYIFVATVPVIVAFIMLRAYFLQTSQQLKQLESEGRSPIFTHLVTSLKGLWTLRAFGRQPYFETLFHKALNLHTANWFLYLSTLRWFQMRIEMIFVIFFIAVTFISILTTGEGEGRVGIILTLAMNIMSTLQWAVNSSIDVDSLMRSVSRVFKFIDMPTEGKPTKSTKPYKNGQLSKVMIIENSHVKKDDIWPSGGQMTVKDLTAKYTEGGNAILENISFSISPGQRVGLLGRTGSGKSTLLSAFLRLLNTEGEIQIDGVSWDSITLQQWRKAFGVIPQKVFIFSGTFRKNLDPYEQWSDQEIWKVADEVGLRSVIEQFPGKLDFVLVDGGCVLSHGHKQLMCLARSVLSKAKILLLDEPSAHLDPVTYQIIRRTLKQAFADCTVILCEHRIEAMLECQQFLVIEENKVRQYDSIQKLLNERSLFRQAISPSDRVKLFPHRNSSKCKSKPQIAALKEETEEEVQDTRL

additivity to CFTR correctors, HS-YFP quenching rate (F508del-CFTR functional rescue) (F508del-CFTR [3]; [6]): additivity in all conditions
F508del-CFTR band C rescue (F508del-CFTR [4]; 0.3 μM): Statistically significant band C rescue
F508del-CFTR band C rescue (F508del-CFTR [4]; 0.3 μM, listed as (R,Z)-3-((4-(2-Bromoacetamido)-3,5-dimethyl-1H-pyrrol-2-yl)-methylene)-2-oxo-N-): statistically significant band C rescue
additivity to CFTR correctors, bands C and B (F508del-CFTR [4]; [6]): additivity
F508del-CFTR band C rescue (F508del-CFTR [4]; 1.0 μM): Statistically significant band C rescue
F508del-CFTR band C rescue (F508del-CFTR [4]; 1.0 μM, listed as (R,Z)-3-((4-(2-Bromoacetamido)-3,5-dimethyl-1H-pyrrol-2-yl)-methylene)-2-oxo-N-): statistically significant band C rescue
band C rescue relative to VX-661 (F508del-CFTR [4]; at 0.3 and 1.0 μM): 50 % of VX-661
CFTR processing [C/(B+C)] (F508del-CFTR [4]): not significantly changed
CFTR processing [C/(B+C)] (F508del-CFTR [4]; [6]): without improved CFTR processing
additivity of rescue to correctors (summary statement) (F508del-CFTR [4]; low micromolar concentrations, VX-809, VX-445 and VX-661): additive to VX-809, VX-445 and VX-661
SMILES: Cc1[nH]c(/C=C2\C(=O)Nc3ccc(C(=O)N[C@H](C)c4ccccc4)cc32)c(C)c1NC(=O)CBr [9 g, (R,Z)-3-((4-(2-Bromoacetamido)-3,5-dimethyl-1H-pyrrol-2-yl)-methylene)-2-oxo-N-(1-phenylethyl)indoline-5-carboxamide]
selectivity against GRK2 (GRK2 [1]): 1400 fold
cellular toxicity [2]: cellular toxicity
IC50 (GRK5): 8.6 nM
additivity to CFTR correctors, HS-YFP quenching rate (F508del-CFTR functional rescue) (F508del-CFTR [3]): additive to all corrector treatments regarding F508del-CFTR functional rescue
F508del-CFTR function rescue (F508del-CFTR [3]; low micromolar concentrations): significant F508del-CFTR processing and function rescue
additivity to CFTR correctors, bands C and B (F508del-CFTR [4]): additive to all corrector treatments regarding bands C and B
F508del-CFTR processing rescue (F508del-CFTR [4]; low micromolar concentrations): significant F508del-CFTR processing and function rescue

SMILES: CC1=C(C(=O)Nc2ccc3[nH]ncc3c2)C(c2ccc(F)c(C(=O)NCc3ccccn3)c2)NC(=O)N1 (stereo not drawn) [CCG215022]
IC50 (GRK2 [5]): 150 ± 70 nM
effect on PKA (PKA): does not affect
IC50 (GRK1): 3.9 ± 1 µM
effect on GRK1 (GRK1; statement in words): does not affect
